Source: EP0051773A1, “Penicillins, their salts, process for their preparation and pharmaceutical compositions containing them” (Dr. Karl Thomae GmbH, priority 1980, dated 1982)
Values after ≈ are worked out from the molar mass of the structure shown.

How the values were obtained:
[1] = system: Enterobacter cloacae ATCC 13 047; experiment: serial dilution test in microtiter system (bacteriostasis, MIC); assay type: cell-based; conditions: ATCC13, liquid medium, 18 to 20 h at 37°C, read-out: MHK-Werte Eb. cloacae 13 047
Experimental: (§1) Für die Untersuchungen wurde die Methode des Reihenverdünnungstestes im Mikrotitersystem angewandt. Die Prüfung der Substanzen auf Bakteriostase erfolgte in flüssigem Medium. Es wurde die Bakteriostasewirkung bei folgenden Konzentrationen untersucht.
(§2) Es wurde ein Nährboden folgender Zusammensetzung benutzt: 10 g Pepton, 8 g Fleischextrakt-Oxoid, 3 g Natriumschlorid, 2 g sek. Natriumphosphat werden mit dest. Wasser auf 1000 ml aufgefüllt (pH 7,2-7,4). Lediglich bei der Testung gegen Streptokokken wurde 1% Glucose hinzugefügt. Das Alter der Primärkulturen betrug etwa 20 Stunden. Die Einstellung der Keimsuspension erfolgte am Photometer (nach "Eppendorf") (Reagenzglas-Durchmesser 14 mm, Filter 546 nm) anhand der Trübung einer Bariumsulfat-Vergleichssuspension, die durch eine Bariumsulfat-Aufschwemmung erzeugt wurde, welche durch die Zugabe von 3,0 ml 1%ige Bariumchloridlösung in 97 ml 1%ige Schwefelsäure entstand. Nach der Einstellung wurden Streptococcus Aronson im Verhältnis 1:15 und die übrigen Testkeime im Verhältnis 1:1500 mit einer Kochsalzlösung weiter verdünnt.
(§3) 16 mg der jeweiligen Substanz wurden in 10 ml-Meßkolben eingewogen und mit dem Lösungsmittel bis zur Marke aufgefüllt. Die weitere Verdünnungsreihe wurde mit destilliertem Wasser oder dem jeweiligen Lösungsmittel hergestellt.
(§4) Die Vertiefungen der Mikrotiterplatten wurden mit 0,2 ml Nährmedium, 0,01 ml der entsprechenden Substanzverdünnung und mit einem Tropfen Keimsuspension (0,01 ml) beschickt und 18 bis 20 Stunden bei 37°C bebrütet. Eine Lösungsmittelkontrolle wurde stets mitgeführt.
(§5) Die Ablesung wurde makroskopisch vorgenommen, wobei die jeweilige Grenkonzentration (= niedrigste noch bakteriostatisch wirksame Konzentration) ermittelt wurde.
(§6) Als Testorganismen wurden benützt: - Staphylococcus aureus SG 511, Escherichia coli ATCC 11 775, Pseudomonas aeruginosa Hamburgensis und Walter, Serratia marcescens ATCC 13 880, Klebsiella pneumoniae ATCC 10 031 und BC 6, Proteus mirabilis Hamburgensis, Proteus rettgeri BC 7 und Enterobacter cloacae ATCC 13 047.
(§7) In der folgenden Tabelle 2 sind die ermittelten minimalen Hemmkonzentrationen (MIC) für typische Vertreter der erfindungsgemäßen Verbindungen aufgeführt, wobei sich die Ziffern auf die Penicilline der Tabelle 1 Seite 18 beziehen.

[2] = system: Escherichia coli ATCC 11 775; experiment: as above; assay type: cell-based; conditions: ATCC11, liquid medium, 18 to 20 h at 37°C, read-out: MHK-Werte E.coli ATCC 11 755
Experimental: as §1, §2, §3, §4, §5, §6, §7

[3] = system: Klebsiella pneumoniae ATCC 10 031; experiment: as above; assay type: cell-based; conditions: ATCC10, liquid medium, 18 to 20 h at 37°C, read-out: MHK-Werte Kl. pneum. ATCC 10 031
Experimental: as §1, §2, §3, §4, §5, §6, §7

[4] = system: Klebsiella pneumoniae BC 6; experiment: as above; assay type: cell-based; conditions: BC6, liquid medium, 18 to 20 h at 37°C, read-out: MHK-Werte Kl. pneum. BC 6
Experimental: as §1, §2, §3, §4, §5, §6, §7

[5] = system: Proteus mirabilis Hamburgensis; experiment: as above; assay type: cell-based; conditions: liquid medium, 18 to 20 h at 37°C, read-out: MHK-Werte Prot. mir. Hbg.
Experimental: as §1, §2, §3, §4, §5, §6, §7

Proteus rettgeri BC 7 = experiment: as above; assay type: cell-based; conditions: Providencia rettgeri, BC7; liquid medium, 18 to 20 h at 37°C; read-out: MHK-Werte Prot. rettg. BC 7
Experimental: as §1, §2, §3, §4, §5, §6, §7

[6] = system: Pseudomonas aeruginosa Hamburgensis; experiment: as above; assay type: cell-based; conditions: liquid medium, 18 to 20 h at 37°C, read-out: MHK-Werte Pseud. aerug. Hbg.
Experimental: as §1, §2, §3, §4, §5, §6, §7

[7] = system: Pseudomonas aeruginosa Walter; experiment: as above; assay type: cell-based; conditions: liquid medium, 18 to 20 h at 37°C, read-out: MHK-Werte Pseud. aerug. Walter
Experimental: as §1, §2, §3, §4, §5, §6, §7

[8] = system: Serratia marcescens ATCC 13 880; experiment: as above; assay type: cell-based; conditions: ATCC13, liquid medium, 18 to 20 h at 37°C, read-out: MHK-Werte Serr. marcesc. ATCC 13 880
Experimental: as §1, §2, §3, §4, §5, §6, §7

[9] = system: Staphylococcus aureus SG 511; experiment: as above; assay type: cell-based; conditions: SG511, liquid medium, 18 to 20 h at 37°C, read-out: MHK-Werte Staph. aureus SG 511
Experimental: as §1, §2, §3, §4, §5, §6, §7

E.coli ATCC 11 775 = experiment: experimental intraperitoneal infection in mice, ED50 (survival); assay type: in vivo, Mäuse; conditions: Escherichia coli, ATCC 11 / ATCC 1175, sc, 168 h; female NMRI mice, i.p. infection, s.c. application, treated once, 7 days observation
Experimental: (§8) Eine Reihe der erfindungsgemäßen Verbindungen wurde in vivo bei experimentellen Infektionen an Mäusen untersucht. Man verwendete als pathogene Bakterien E.coli ATCC 11 775 und Pseudomonas aeruginosa Walter. Es wurde eine intraperitoneale Infektion mit 0,2 ml einer 5%igen Mucinsuspension der Bakterien gesetzt. Dies entspricht etwa 2x10^6 Keime E.coli bzw. 8x10^5 Keime Pseudomonas/Maus. Weibliche Mäuse vom Stamm NMRI wurden in Gruppen von jeweils 10 Tieren aufgeteilt, zwei Gruppen blieben unbehandelt, die restlichen Gruppen wurden mit verschiedenen Dosen der jeweiligen erfindungsgemäßen Penicilline zur Bestimmung der ED50 (Dosis, bei der 50 % der Tiere überleben) behandelt. Bei der E.coli-Infektion wurde einmal therapiert. Bei der Pseudomonas-Infektion wurde dreimal behandelt.
(§9) Der Beobachtungszeitraum betrug in beiden Fällen 7 Tage. Die Ergebnisse dieser Teste mit repräsentativen Vertretern der erfindungsgemäßen Penicilline sind in der Tabelle 3 dargestellt.

[10] = system: Pseudomonas aeruginosa Walter; experiment: as above; assay type: in vivo, Mäuse; conditions: sc, 168 h, female NMRI mice, i.p. infection, s.c. application, treated three times, 7 days observation, read-out: ED50 Pseud. aerug. Walter
Experimental: as §8, §9

| SMILES | MIC [1] | MIC [2] | MIC [3] | MIC [4] | MIC [5] | MIC (Proteus rettgeri BC 7) | MIC [6] | MIC [7] | MIC [8] | MIC [9] | ED50 (E.coli ATCC 11 775) | ED50 [10] |
| --- | --- | --- | --- | --- | --- | --- | --- | --- | --- | --- | --- | --- |
| CC1(C)S[C@@H]2[C@H](NC(=O)C(NC(=O)Nc3cnc(NCc4ccc(S(N)(=O)=O)cc4)nc3O)c3ccc(O)cc3)C(=O)N2[C@H]1C(=O)O (stereo partly drawn) [Verbindung 64] | 2 µg/mL (≈ 2.91 µM) | 0.12 µg/mL (≈ 0.175 µM) | 4 µg/mL (≈ 5.82 µM) | 4 µg/mL (≈ 5.82 µM) | 0.06 µg/mL (≈ 0.0874 µM) | 0.5 µg/mL (≈ 0.728 µM) | 2 µg/mL (≈ 2.91 µM) | 1 µg/mL (≈ 1.46 µM) | 0.25 µg/mL (≈ 0.364 µM) | 0.25 µg/mL (≈ 0.364 µM) | 2.4 mg/kg | 12.4 mg/kg |
| CCN1CCN(C(=O)N[C@@H](C(=O)N[C@@H]2C(=O)N3[C@@H]2SC(C)(C)[C@@H]3C(=O)O)c2ccccc2)C(=O)C1=O [D, Piperacillin, reference compound] | 4 µg/mL (≈ 7.73 µM) | 2 µg/mL (≈ 3.86 µM) | 4 µg/mL (≈ 7.73 µM) | 8 µg/mL (≈ 15.5 µM) | 0.25 µg/mL (≈ 0.483 µM) | 0.5 µg/mL (≈ 0.966 µM) | 4 µg/mL (≈ 7.73 µM) | 8 µg/mL (≈ 15.5 µM) | 0.5 µg/mL (≈ 0.966 µM) | 0.25 µg/mL (≈ 0.483 µM) | 89 mg/kg | 186 mg/kg |

The next lines start with results.

| MIC [1] | MIC [2] | MIC [3] | MIC [4] | MIC [5] | MIC (Proteus rettgeri BC 7) | MIC [6] | MIC [7] | MIC [8] | MIC [9] | SMILES | ED50 (E.coli ATCC 11 775) | ED50 [10] |
| --- | --- | --- | --- | --- | --- | --- | --- | --- | --- | --- | --- | --- |
| 0.5 µg/mL (≈ 0.761 µM) | 0.12 µg/mL (≈ 0.183 µM) | 0.5 µg/mL (≈ 0.761 µM) | 0.5 µg/mL (≈ 0.761 µM) | < 0.03 µg/mL | 0.25 µg/mL (≈ 0.381 µM) | 1 µg/mL (≈ 1.52 µM) | 1 µg/mL (≈ 1.52 µM) | 0.12 µg/mL (≈ 0.183 µM) | 0.12 µg/mL (≈ 0.183 µM) | CC1(C)S[C@@H]2[C@H](NC(=O)[C@H](NC(=O)Nc3cnc(Nc4ccc(S(N)(=O)=O)cc4)nc3O)c3ccccc3)C(=O)N2[C@H]1C(=O)O [Verbindung 1, D-α-[3-(2-p-Aminosulfonylanilino-4-hydroxy-5-pyrimidinyl)-ureido]-benzylpenicillin-Natrium] | 3.9 mg/kg | 8.2 mg/kg |
| 2 µg/mL (≈ 3.13 µM) | 0.25 µg/mL (≈ 0.391 µM) | 2 µg/mL (≈ 3.13 µM) | 1 µg/mL (≈ 1.56 µM) | 0.12 µg/mL (≈ 0.188 µM) | 0.5 µg/mL (≈ 0.782 µM) | 2 µg/mL (≈ 3.13 µM) | 2 µg/mL (≈ 3.13 µM) | 0.25 µg/mL (≈ 0.391 µM) | 0.25 µg/mL (≈ 0.391 µM) | C[S+]([O-])c1ccc(Nc2ncc(NC(=O)NC(C(=O)NC3C(=O)N4C3SC(C)(C)C4C(=O)O)c3ccccc3)c(O)n2)cc1 (stereo not drawn) [Verbindung 21] | 3 mg/kg | 6.6 mg/kg |
| 4 µg/mL (≈ 5.81 µM) | 1 µg/mL (≈ 1.45 µM) | 8 µg/mL (≈ 11.6 µM) | 8 µg/mL (≈ 11.6 µM) | 0.5 µg/mL (≈ 0.726 µM) | 1 µg/mL (≈ 1.45 µM) | 4 µg/mL (≈ 5.81 µM) | 4 µg/mL (≈ 5.81 µM) | 4 µg/mL (≈ 5.81 µM) | 0.5 µg/mL (≈ 0.726 µM) | CC1(C)S[C@@H]2[C@H](NC(=O)[C@H](NC(=O)Nc3cnc(Nc4ccc(S(N)(=O)=O)cc4)nc3O)c3ccc(O)c(O)c3)C(=O)N2[C@H]1C(=O)O [Verbindung 3] | 3.7 mg/kg | 10.4 mg/kg |
